Test results from patent US6093563A, “Chondroitin lyase enzymes” (IBEX Technologies R and D, Inc., priority 1994, dated 2000).

Key:
[1] = target: Flavobacterium heparinum chondroitinase AC (77,000 Dalton, purified, Sequence ID No. 2) (Pedobacter heparinus, UniProt Q59288); conditions: 0.1 mM reagent; 20 mM Tris buffer, pH 8.0; 0.5 mg/ml chondroitin sulfate A as substrate; none = 100
Method: (§1) Chondroitinase activity was determined by a modification of the spectrophotometric assay described by Yang, et al., J. Biol. Chem., 160(30):1849-1857, 1985. Chondroitinases degrade their respective substrates by an eliminative reaction resulting in the formation of 4,5-unsaturated sulfated disaccharides which absorb ultraviolet light at 232 nm. Reaction buffers contained 50 mM Tris, pH 8.0 and 0.5 mg/ml substrate; dermatan sulfate for chondroitinase B activity, chondroitin sulfate A for chondroitinase AC activity. A continuous spectrophotometric assay is carried out by transferring a 10 to 50 μl sample to a quartz cuvette and adding the reaction buffer to make a final volume of one ml. The cuvette is placed in a Beckman DU 640 spectrophotometer, controlled to maintain a constant temperature of 30° C., and the increase in absorbance at 232 nm monitored for three to five minutes. Activities are calculated using the molar extinction coefficient for chondroitin sulfate, 5.1×103 M^-1, and are expressed in international units, IU, where one IU is the amount of enzyme required to catalyze the formation of one μmole unsaturated product per minute.

[2] = target: Flavobacterium heparinum chondroitinase B (55,000 Dalton, purified, Sequence ID No. 4) (Pedobacter heparinus, UniProt Q46079); conditions: 0.1 mM reagent; 20 mM Tris buffer, pH 8.0; 0.5 mg/ml dermatan sulfate as substrate; none = 100
Sequence of Flavobacterium heparinum chondroitinase B (55,000 Dalton, purified, Sequence ID No. 4) (Q46079 26-506): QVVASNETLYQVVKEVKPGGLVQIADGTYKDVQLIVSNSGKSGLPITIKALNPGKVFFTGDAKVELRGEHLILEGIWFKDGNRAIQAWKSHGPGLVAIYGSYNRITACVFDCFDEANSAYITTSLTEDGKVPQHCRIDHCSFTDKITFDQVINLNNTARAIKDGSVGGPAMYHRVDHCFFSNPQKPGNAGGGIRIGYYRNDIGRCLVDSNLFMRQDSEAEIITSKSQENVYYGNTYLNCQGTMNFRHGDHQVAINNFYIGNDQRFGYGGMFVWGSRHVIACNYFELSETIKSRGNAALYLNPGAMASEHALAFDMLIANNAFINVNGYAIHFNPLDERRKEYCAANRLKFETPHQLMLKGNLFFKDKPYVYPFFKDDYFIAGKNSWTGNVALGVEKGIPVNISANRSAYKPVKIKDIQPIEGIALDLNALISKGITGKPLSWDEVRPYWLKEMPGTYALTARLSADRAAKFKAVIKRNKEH
Method: as §1

Sequence of Flavobacterium heparinum chondroitinase AC (77,000 Dalton, purified, Sequence ID No. 2) (Q59288 23-700): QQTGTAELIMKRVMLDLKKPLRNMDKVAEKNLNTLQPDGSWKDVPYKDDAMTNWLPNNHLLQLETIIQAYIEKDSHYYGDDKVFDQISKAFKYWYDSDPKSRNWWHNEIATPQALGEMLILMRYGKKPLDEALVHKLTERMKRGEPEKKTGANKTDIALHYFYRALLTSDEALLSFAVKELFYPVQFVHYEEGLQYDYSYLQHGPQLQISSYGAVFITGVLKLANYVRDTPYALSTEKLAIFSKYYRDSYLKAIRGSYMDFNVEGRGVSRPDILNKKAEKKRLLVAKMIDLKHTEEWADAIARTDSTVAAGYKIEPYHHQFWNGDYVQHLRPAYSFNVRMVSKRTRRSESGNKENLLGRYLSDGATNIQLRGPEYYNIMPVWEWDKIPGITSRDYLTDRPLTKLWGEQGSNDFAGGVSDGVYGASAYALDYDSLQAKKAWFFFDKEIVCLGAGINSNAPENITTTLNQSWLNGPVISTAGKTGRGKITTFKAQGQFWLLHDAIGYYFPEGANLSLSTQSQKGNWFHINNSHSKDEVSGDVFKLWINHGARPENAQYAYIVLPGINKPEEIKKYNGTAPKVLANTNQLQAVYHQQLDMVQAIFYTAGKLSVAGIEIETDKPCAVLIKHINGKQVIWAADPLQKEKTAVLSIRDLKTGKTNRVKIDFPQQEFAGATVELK

O=C(O)CN(CCN(CC(=O)O)CC(=O)O)CC(=O)O [EDTA]
chondroitinase AC relative activity (%) [1]: 97% | chondroitinase B relative activity (%) [2]: 1%
